Assay results published in patent US20240124545A1, “COMPOSITIONS AND METHODS RELATING TO THE TREATMENT OF DISEASES” (ILC THERAPEUTICS LIMITED, priority 2021, published 2024).
Values joined by “and” are separate entries in the source; they are usually repeats but may differ in a detail not shown here. Identical values can stand only once.

Assays:
[1] = test system: HEp-2 cells; assay: XTT viability (cytotoxicity) assay, uninfected HEp-2 cells; conditions: 1 μM; 72 hours
[2] = test system: HeLa-CD4-βgal cells; assay: XTT viability (cytotoxicity) assay, uninfected HeLa-CD4-βgal cells (Experiment 4); conditions: 1 μM; 48 hours
[3] = test system: HeLa-CD4-βgal cells; assay: XTT viability (cytotoxicity) assay, uninfected HeLa-CD4-βgal cells (Experiment 5); conditions: 10 μM
[4] = test system: HeLa-CD4-βgal cells; conditions: human

CC[C@H]1CN2CCc3cc(OC)c(OC)cc3[C@@H]2C[C@@H]1C[C@H]1NCCc2cc(OC)c(OC)cc21 [Emetine]
HEp-2 viability in the XTT assay (percentage values), controls [1]: 6.8 ± 1.1 % vehicle | Viability of HeLa-CD4-βgal cells in the XTT assay (percentage values), controls [2]: 10.0 ± 1.7% | Viability of Uninfected HeLa-CD4-β gal Cells (% vehicle alone), controls ([3]; 48 hours): 5.6 ± 0.7 % vehicle alone | Viability (A490), controls, HeLa-CD4-βgal cells ([3]; raw absorbance 490 nm): 0.213 and 0.203 | inhibition by viability control in XTT cytotoxicity assays [4]: greater than 85% | inhibition of cell viability by cytotoxic compound control [4]: greater than 90%
